Assay results: patent US7429592B2, “Cyanoanthranilamide derivatives and the use thereof as medicaments” (Schering Aktienegesellschaft, priority 2001, dated 2008)
pIC50: −log10 of the molar value.

Legend:
VEGFR II (KDR) = VEGFR II (KDR) (Homo sapiens, UniProt P35968); assay: Inhibition of the KDR kinase activity (33P-ATP, poly-(Glu4Tyr) substrate, phosphocellulose filter); format: biochemical; conditions: 10 minutes at room temperature; phosphate incorporation
Method: • Stock solution A: 3 mmol of ATP in water, pH 7.0 (−70° C.) • Stock solution B: g-33P-ATP 1 mCi/100 μl • Stock solution C: poly-(Glu4 Tyr) 10 mg/ml in water Solution for Dilutions • Substrate solvent: 10 mmol of DTT, 10 mmol of manganese chloride, 100 mmol of magnesium chloride • Enzyme solution: 120 mmol of tris/HCl, pH 7.5, […] of sodium vanadium oxide
Inhibition of the KDR- and FLT-1 Kinase Activity in the Presence of the Compounds According to the Invention
In a microtiter plate (without protein binding) that tapers to a point, 10 μl of substrate mix (10 μl of volume of ATP stock solution A+25 μCi of g-33P-ATP (about 2.5 μl of stock solution B)+30 μl of poly-(Glu4Tyr) stock solution C+1.21 ml of substrate solvent), 10 μl of inhibitor solution (substances corresponding to the dilutions, 3% DMSO in substrate solvent as a control) and 10 μl of enzyme solution (11.25 μg of enzyme stock solution (KDR or FLT-1 kinase) are added at 4° C. in 1.25 ml of enzyme solution (dilute). It is thoroughly mixed and incubated for 10 minutes at room temperature. Then, 10 μl of stop solution ([…] of EDTA, pH 7.0) is added, mixed, and 10 μl of the solution is transferred to a P 81 phosphocellulose filter. Then, it is washed several times in 0.1 M phosphoric acid. The filter paper is dried, coated with Meltilex and measured in a microbeta counter.
The IC50 values are determined from the inhibitor concentration, which is necessary to inhibit the phosphate incorporation to 50% of the uninhibited incorporation after removal of the blank reading (EDTA-stopped reaction).

Cytochrome P450 1A2 = target: T1, Cytochrome P450 1A2 (Homo sapiens, UniProt P05177); assay: Cytochrome P450 inhibition (Crespi et al.); format: in vitro ADME; conditions: baculovirus/insect cell-expressed human isoenzyme 1A2; read-out: Inhibition of the Cytochrome P450 Isoenzymes IC50, 1A2
T1 construct: host or cells: baculovirus/insect cells
T1 sequence (P05177 1-516): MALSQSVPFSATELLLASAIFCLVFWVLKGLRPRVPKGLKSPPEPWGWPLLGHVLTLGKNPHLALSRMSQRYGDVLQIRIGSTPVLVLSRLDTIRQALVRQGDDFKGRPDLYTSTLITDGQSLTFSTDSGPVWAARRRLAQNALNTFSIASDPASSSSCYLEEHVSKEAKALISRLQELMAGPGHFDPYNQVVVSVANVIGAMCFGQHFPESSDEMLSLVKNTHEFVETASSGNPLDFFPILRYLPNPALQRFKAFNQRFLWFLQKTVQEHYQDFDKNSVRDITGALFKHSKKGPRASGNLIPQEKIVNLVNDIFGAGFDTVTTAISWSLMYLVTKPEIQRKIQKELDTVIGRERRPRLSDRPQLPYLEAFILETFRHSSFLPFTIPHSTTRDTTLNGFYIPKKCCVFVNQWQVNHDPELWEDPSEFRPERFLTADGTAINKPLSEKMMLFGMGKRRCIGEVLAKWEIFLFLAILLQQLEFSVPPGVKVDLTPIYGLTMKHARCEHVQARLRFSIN
Method: (§1) The Cytochrome P450 inhibition was performed according to the publication of Crespi et al. (Anal. Biochem., 248, 188-190 (1997)) with use of baculovirus/insect cell-expressed, human Cytochrome P 450 isoenzymes (1A2, 2C9, 2C19, 2D6, 3A4).

Cytochrome P450 2C19 = target: T2, Cytochrome P450 2C19 (Homo sapiens, UniProt P33261); assay: Cytochrome P450 inhibition (Crespi et al.); format: in vitro ADME; conditions: baculovirus/insect cell-expressed human isoenzyme 2C19; read-out: Inhibition of the Cytochrome P450 Isoenzymes IC50, 2C19
T2 construct: host or cells: baculovirus/insect cells
T2 sequence (P33261 whole entry): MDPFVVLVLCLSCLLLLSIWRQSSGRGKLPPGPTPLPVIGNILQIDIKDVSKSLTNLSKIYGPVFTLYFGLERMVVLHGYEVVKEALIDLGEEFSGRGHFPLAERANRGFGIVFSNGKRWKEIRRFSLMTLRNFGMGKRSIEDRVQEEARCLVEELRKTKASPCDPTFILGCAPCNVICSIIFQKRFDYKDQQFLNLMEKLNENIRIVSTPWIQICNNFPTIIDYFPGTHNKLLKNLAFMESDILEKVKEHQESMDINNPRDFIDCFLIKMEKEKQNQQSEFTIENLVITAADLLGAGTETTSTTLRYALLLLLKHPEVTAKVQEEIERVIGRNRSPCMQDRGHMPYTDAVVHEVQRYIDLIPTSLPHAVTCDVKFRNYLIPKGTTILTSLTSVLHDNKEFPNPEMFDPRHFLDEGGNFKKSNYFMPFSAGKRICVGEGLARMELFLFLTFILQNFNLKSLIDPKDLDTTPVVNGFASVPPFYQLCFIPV
Method: as §1

Cytochrome P450 2C9 = target: T3, Cytochrome P450 2C9 (Homo sapiens, UniProt P11712); assay: Cytochrome P450 inhibition (Crespi et al.); format: in vitro ADME; conditions: baculovirus/insect cell-expressed human isoenzyme 2C9; read-out: Inhibition of the Cytochrome P450 Isoenzymes IC50, 2C9
T3 construct: host or cells: baculovirus/insect cells
T3 sequence (P11712 whole entry): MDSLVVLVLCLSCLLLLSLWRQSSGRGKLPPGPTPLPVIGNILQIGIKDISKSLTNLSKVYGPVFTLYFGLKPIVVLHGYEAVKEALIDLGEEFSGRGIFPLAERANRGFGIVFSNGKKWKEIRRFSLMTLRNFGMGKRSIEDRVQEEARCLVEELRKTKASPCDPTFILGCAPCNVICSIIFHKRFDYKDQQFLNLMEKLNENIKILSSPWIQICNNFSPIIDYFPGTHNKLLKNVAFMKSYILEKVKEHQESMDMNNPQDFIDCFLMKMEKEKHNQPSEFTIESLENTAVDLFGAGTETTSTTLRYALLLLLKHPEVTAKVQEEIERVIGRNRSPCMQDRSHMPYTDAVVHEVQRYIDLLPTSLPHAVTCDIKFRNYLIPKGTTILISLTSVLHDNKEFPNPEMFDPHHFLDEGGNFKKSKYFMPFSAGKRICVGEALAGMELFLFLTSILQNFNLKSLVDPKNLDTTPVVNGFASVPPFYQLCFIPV
Method: as §1

Cytochrome P450 2D6 = target: T4, Cytochrome P450 2D6 (Homo sapiens, UniProt P10635); assay: Cytochrome P450 inhibition (Crespi et al.); format: in vitro ADME; conditions: baculovirus/insect cell-expressed human isoenzyme 2D6; read-out: Inhibition of the Cytochrome P450 Isoenzymes IC50, 2D6
T4 construct: host or cells: baculovirus/insect cells
T4 sequence (P10635 whole entry): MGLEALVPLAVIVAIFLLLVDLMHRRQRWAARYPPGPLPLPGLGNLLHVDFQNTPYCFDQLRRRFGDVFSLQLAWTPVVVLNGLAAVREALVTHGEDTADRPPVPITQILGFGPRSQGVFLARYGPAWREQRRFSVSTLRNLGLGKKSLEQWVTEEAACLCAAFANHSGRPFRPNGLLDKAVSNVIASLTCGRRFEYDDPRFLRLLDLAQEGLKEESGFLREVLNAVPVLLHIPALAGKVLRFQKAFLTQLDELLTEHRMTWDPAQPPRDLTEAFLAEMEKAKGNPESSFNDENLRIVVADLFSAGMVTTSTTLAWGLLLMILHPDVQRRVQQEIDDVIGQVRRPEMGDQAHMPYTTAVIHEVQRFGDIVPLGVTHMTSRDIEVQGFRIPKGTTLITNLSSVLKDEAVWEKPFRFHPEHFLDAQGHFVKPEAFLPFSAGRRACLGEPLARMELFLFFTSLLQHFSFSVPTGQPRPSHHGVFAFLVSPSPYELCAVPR
Method: as §1

Cytochrome P450 3A4 = target: T5, Cytochrome P450 3A4 (Homo sapiens, UniProt P08684); assay: Cytochrome P450 inhibition (Crespi et al.); format: in vitro ADME; conditions: baculovirus/insect cell-expressed human isoenzyme 3A4; read-out: Inhibition of the Cytochrome P450 Isoenzymes IC50, 3A4
T5 construct: host or cells: baculovirus/insect cells
T5 sequence (P08684 whole entry): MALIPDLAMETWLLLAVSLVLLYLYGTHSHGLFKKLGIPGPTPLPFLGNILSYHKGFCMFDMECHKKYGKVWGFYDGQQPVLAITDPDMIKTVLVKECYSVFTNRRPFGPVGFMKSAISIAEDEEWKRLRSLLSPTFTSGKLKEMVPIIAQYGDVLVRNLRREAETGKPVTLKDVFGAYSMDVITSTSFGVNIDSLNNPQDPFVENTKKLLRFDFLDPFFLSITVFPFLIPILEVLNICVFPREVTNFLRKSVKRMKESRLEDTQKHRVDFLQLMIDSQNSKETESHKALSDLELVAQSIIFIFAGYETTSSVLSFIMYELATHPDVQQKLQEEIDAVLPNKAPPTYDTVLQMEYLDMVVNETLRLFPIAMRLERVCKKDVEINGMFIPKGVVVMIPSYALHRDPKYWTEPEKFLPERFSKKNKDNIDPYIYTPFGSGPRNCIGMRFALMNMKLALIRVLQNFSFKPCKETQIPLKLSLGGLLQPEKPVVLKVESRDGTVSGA
Method: as §1

VEGFR II (KDR), sequence (P35968 20-1356, species assumed): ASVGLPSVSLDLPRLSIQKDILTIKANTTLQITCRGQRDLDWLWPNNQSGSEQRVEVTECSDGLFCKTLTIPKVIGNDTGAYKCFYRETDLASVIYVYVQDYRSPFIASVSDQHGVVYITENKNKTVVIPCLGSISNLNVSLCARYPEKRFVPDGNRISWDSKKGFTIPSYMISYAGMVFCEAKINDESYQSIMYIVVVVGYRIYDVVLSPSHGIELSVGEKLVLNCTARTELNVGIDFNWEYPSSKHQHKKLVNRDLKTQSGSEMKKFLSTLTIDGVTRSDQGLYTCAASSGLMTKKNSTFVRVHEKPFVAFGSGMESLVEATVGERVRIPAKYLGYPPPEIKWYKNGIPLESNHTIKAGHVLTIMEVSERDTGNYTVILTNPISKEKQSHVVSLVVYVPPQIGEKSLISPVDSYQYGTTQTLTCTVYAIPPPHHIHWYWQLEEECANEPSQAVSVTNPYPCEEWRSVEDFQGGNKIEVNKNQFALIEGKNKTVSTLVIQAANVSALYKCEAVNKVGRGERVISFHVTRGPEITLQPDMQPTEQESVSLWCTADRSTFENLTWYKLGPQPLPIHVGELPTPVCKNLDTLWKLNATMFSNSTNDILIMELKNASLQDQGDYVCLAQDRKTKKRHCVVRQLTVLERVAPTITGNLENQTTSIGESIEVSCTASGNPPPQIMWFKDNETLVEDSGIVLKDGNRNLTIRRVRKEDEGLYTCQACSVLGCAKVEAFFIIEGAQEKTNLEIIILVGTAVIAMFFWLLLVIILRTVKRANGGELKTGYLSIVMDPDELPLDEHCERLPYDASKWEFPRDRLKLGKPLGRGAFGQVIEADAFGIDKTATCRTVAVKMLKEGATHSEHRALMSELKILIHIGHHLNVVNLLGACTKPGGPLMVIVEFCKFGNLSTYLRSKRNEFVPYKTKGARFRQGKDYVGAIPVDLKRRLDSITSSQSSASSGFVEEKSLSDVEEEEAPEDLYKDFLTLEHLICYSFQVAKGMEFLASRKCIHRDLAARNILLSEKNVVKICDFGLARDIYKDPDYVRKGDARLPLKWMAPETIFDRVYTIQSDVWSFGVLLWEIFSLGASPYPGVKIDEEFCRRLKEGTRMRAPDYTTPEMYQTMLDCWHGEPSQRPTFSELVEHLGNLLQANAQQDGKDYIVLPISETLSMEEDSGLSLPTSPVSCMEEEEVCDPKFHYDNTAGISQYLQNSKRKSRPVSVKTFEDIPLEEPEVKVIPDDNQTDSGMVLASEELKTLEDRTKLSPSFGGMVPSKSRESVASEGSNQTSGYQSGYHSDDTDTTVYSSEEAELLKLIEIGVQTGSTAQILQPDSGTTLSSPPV

Compound	pIC50 (VEGFR II (KDR))	melting point	other results
N#Cc1cc(CNc2ccccc2C(=O)Nc2ccc3cn[nH]c3c2)ccn1 [Example 16]	7.00	–	–
COc1ccc2cc(NC(=O)c3ccccc3NCc3ccc(C#N)nc3)c(=O)oc2c1 [Example 6]	6.52	173.4 °C	–
N#Cc1cc(CNc2ccccc2C(=O)Nc2ccc3c(c2)NC(=O)C3)ccn1 [Example 13]	6.70	–	–
COc1ccc2cc(C)c(NC(=O)c3ccccc3NCc3ccnc(C#N)c3)nc2c1 [Example 12]	6.15	153 to 155 °C	–
N#CCn1ncc2ccc(NC(=O)c3ccccc3NCc3ccnc(C#N)c3)cc21 [Example 5]	6.52	–	–
N#Cc1ccc(CNc2ccccc2C(=O)Nc2cc3ccccc3cn2)cn1 [Example 2]	7.30	173.8 °C	–
N#Cc1ncccc1CNc1ccccc1C(=O)Nc1cc2ccccc2cn1 [Example 3]	7.30	233.4 °C (dec.)	–
Cn1ncc2ccc(NC(=O)c3ccccc3NCc3ccnc(C#N)c3)cc21 [Example 10]	6.70	155 to 158 °C	–
COc1ccc2cc(NC(=O)c3ccccc3NCc3ccnc(C#N)c3)c(=O)oc2c1 [Example 11]	6.70	165 to 167 °C	–
Cn1cc2ccc(NC(=O)c3ccccc3NCc3ccnc(C#N)c3)cc2n1 [Example 15]	6.70	–	–
N#Cc1ccc(CNc2ccccc2C(=O)Nc2ccc3c(c2)CC(=O)N3)cn1 [Example 4]	6.52	–	–
N#Cc1cc(CNc2ccccc2C(=O)Nc2cc3ccccc3cn2)ccn1 [Example 1]	8.00	–	pIC50 (Cytochrome P450 1A2): < 4.52; pIC50 (Cytochrome P450 2C19): 5.74; pIC50 (Cytochrome P450 2C9): 5.92; pIC50 (Cytochrome P450 2D6): < 4.52; pIC50 (Cytochrome P450 3A4): < 4.52
